The text below walks through data of patent publication US20050124658A1, “Decahydronaphtho[2,3-c]furan derivatives” (Segami Chemical Research Center, priority 2001, published 2005).

As usually defined, the melting point is the temperature, or range, at which the solid turns liquid. Consider `O=C1OCC2C3OC(C4=C3CCCC4)C12` (stereo not shown), for which the melting point fell in the range of 105 to 106 °C.
For the molecule `O=C1OCC2C1CC1CCCCC1C2O` (stereo not shown) [Example 5, Decahydro-4-hydoxy-naphtho[2,3-c]furan-1(3H)-one], the melting point fell in the range of 149 to 150 °C.
For `COC1OCC2C(O)C3CCCCC3CC12` (stereo not shown) [Example 6, Dodecahydro-1-methoxy-naphtho[2,3-c]furan-4-ol] the value was 75 to 77 °C.
`COC1OCC2C1CC1CCCCC1C2COC(=O)c1ccc(Br)cc1` (stereo not shown) [Example 10, Dodecahydro-4-(4-bromophenyl)carboxymethyl-1-methoxynaphtho[2,3-c]furan] came in with a melting point of 107 to 108 °C.
As for `C=C1C2CCCCC2CC2C(OC)OCC12` (stereo not shown) [Example 8, Dodecahydro-1-methoxy-4-methylenenaphtho[2,3-c]furan], the melting point fell in the range of 53 to 55 °C.
For `COC1OCC2C(=O)C3CCCCC3CC12` (stereo not shown) [Example 7, Decahydro-1-methoxy-naphtho[2,3-c]furan-4(1H)-one] the value was 78 to 79 °C; for `O=C1OCC2C3OC(C4CCCCC43)C12` (stereo not shown), 90 to 91 °C.
